# Laboratory results published in article PMC7481290, “Halogenation as a tool to tune antimicrobial activity of peptoids” (Scientific Reports, 2020).
# Non-standard residues stand in square brackets, D forms with d. Residues, ends and D or L forms follow the SMILES beside them. Gly(Nα-4-Cl-benzyl) = O=C(O)CNCc1ccc(Cl)cc1; N(4-F-Bzl)Gly = O=C(O)CNCc1ccc(F)cc1; NBzl(4-I)Gly = O=C(O)CNCc1ccc(I)cc1; Nphe = O=C(O)CNCc1ccccc1; Nlys = NCCCCNCC(=O)O
# How the values were obtained:
# [1] = test system: Methicillin-resistant S. aureus USA 300; type: cell-based, Staphylococcus aureus; conditions: USA 300, 18 h
# Method: (§1) Bacterial growth inhibition was determined by using broth microdilution according to the Clinical Laboratory Standards Institute[43]. The antibacterial activity of peptoids was tested against S. aureus ATCC 25923, ATCC29213, and methicillin resistant S. aureus USA 300, methicillin resistant S. epidermidis ATCC 51625, a biofilm producing methicillin resistant S. epidermidis ET-024[44], P. aeruginosa Pa01 (H103), and E. coli ATCC 25922. Bacteria, grown on agar plates for 18 h at 37 °C, were diluted to ∼1 × 10^8 CFU/mL in Mueller‐Hinton Broth II (MHB II). Twofold serial dilutions of peptoids in MHB II were inoculated with bacteria to achieve a final concentration of 5 × 10^5 CFU/mL in polypropylene 96 U‐well microtiter plates (Corning 3,897; ThermoFisher Scientific, Roskilde), followed by incubation at 37 °C in ambient air for 18 h. The MIC values were determined as the lowest concentration showing no visible bacterial growth. Experiments were performed twice (in technical triplicates) on 2 different days.
# [2] = test system: S. aureus ATCC 25923; type: cell-based, Staphylococcus aureus; conditions: for Minimal inhibitory concentration SA^a: ATCC 25923, 18 h
# Method: as §1
# [3] = test system: S. aureus ATCC 29213; type: cell-based, Staphylococcus aureus; conditions: ATCC 29213, 18 h
# Method: as §1
# [4] = test system: Methicillin-resistant S. epidermidis ATCC 51625; type: cell-based, Staphylococcus epidermidis; conditions: for Minimal inhibitory concentration MRSE^e: ATCC 51625, 18 h
# Method: as §1
# [5] = test system: Methicillin-resistant S. epidermidis ET-024; type: cell-based, Staphylococcus epidermidis; conditions: for Minimal inhibitory concentration MRSE^d: Methicillin-resistant ET-024, 18 h
# Method: as §1
# [6] = test system: E. coli ATCC 25922; type: cell-based, Escherichia coli; conditions: ATCC 25922, 18 h
# Method: as §1
# [7] = test system: P. aeruginosa PA01 (H103); type: cell-based, Pseudomonas aeruginosa; conditions: H103, 18 h
# Method: as §1
# [8] = Critical aggregation concentration from SAXS fit analysis; type: physicochemical
# Method: SAXS experiments of the 10-mer peptoids were performed at the automated BM29 bioSAXS beamline at the European Synchrotron Radiation Facility (ESRF) in Grenoble, France[45]. The data was obtained using an energy of 12.5 keV and a detector distance of 2.87 m, covering a q range ( q=4πsin(θ/2)/λ ), where θ is the scattering angle and λ is the X-ray wavelength) of about 0.0047 to 0.5 Å^−1. The data set was calibrated to an absolute intensity scale using water as a primary standard. 40 µL samples were run through a capillary using the flow mode of the automated sample changer. SAXS data was collected in ten successive frames of 0.5 s each to monitor radiation damage and the data reduction was done using the standard tool at BM29[47].
# The SAXS experiments on the fully iodinated 6-, 8-, and 12-mers to determine the CAC of the compounds were performed using a Bruker NANOSTAR equipped with a microfocus X-ray source (IμS Cu, Incoatec, Germany) and a VÅNTEC-2000 detector. Raw scattering data was calibrated to absolute intensity scale using water as a primary standard and radially averaged in order to obtain the 1D scattered intensity profile as a function of the scattering vector, with a wavelength of 1.54 Å.
# The modelling fit analysis of the scattering data is explained in detail in the supplementary information.
Compound,Minimal inhibitory concentration MRSA^c [1] [µg/mL],Minimal inhibitory concentration SA^a [2] [µg/mL],fold increase of activity against S. aureus ([2]; versus non-halogenated control of same length) [fold],Minimal inhibitory concentration SA^b [3] [µg/mL],"MIC against MRSE ([4]; text b15, strain not named, values match ATCC 51625) [µg/mL]","fold increase of activity against MRSE ([4]; versus non-halogenated control 1, values match ATCC 51625) [fold]",Minimal inhibitory concentration MRSE^d [5] [µg/mL],Minimal inhibitory concentration EC^f [6] [µg/mL],Minimal inhibitory concentration PA^g [7] [µg/mL],critical aggregation concentration (CAC) [8] [mg/mL],Minimal inhibitory concentration MRSE^e [4] [µg/mL],"fold increase of activity against MRSE ([5]; versus non-halogenated control of same length, values match ET-024) [fold]"
NCCCCNCC(=O)N(CC(=O)N(CCCCN)CC(=O)N(CC(=O)N(CCCCN)CC(=O)N(CC(N)=O)Cc1ccc(I)cc1)Cc1ccc(I)cc1)Cc1ccc(I)cc1 [Compound 5] (H-[Nlys][NBzl(4-I)Gly][Nlys][NBzl(4-I)Gly][Nlys][NBzl(4-I)Gly]-NH2),4,8,> 64,4,2,256,4,64,> 512,2.8,–,–
NCCCCNCC(=O)N(CC(=O)N(CCCCN)CC(=O)N(CC(=O)N(CCCCN)CC(=O)N(CC(=O)N(CCCCN)CC(=O)N(CC(N)=O)Cc1ccc(I)cc1)Cc1ccc(I)cc1)Cc1ccc(I)cc1)Cc1ccc(I)cc1 [Compound 14] (H-[Nlys][NBzl(4-I)Gly][Nlys][NBzl(4-I)Gly][Nlys][NBzl(4-I)Gly][Nlys][NBzl(4-I)Gly]-NH2),4,8,–,16,–,–,2,64,> 512,1.4,4,128
NCCCCNCC(=O)N(CC(=O)N(CCCCN)CC(=O)N(CC(=O)N(CCCCN)CC(=O)N(CC(=O)N(CCCCN)CC(=O)N(CC(=O)N(CCCCN)CC(=O)N(CC(N)=O)Cc1ccc(F)cc1)Cc1ccc(F)cc1)Cc1ccc(F)cc1)Cc1ccc(F)cc1)Cc1ccc(F)cc1 [Compound 20] (H-[Nlys][N(4-F-Bzl)Gly][Nlys][N(4-F-Bzl)Gly][Nlys][N(4-F-Bzl)Gly][Nlys][N(4-F-Bzl)Gly][Nlys][N(4-F-Bzl)Gly]-NH2),32,64,–,64,–,–,4,128,256,> 5,8,–
NCCCCNCC(=O)N(CC(=O)N(CCCCN)CC(=O)N(CC(=O)N(CCCCN)CC(=O)N(CC(=O)N(CCCCN)CC(=O)N(CC(=O)N(CCCCN)CC(=O)N(CC(N)=O)Cc1ccc(Cl)cc1)Cc1ccc(Cl)cc1)Cc1ccc(Cl)cc1)Cc1ccc(Cl)cc1)Cc1ccc(Cl)cc1 [Compound 21] (H-[Nlys][Gly(Nα-4-Cl-benzyl)][Nlys][Gly(Nα-4-Cl-benzyl)][Nlys][Gly(Nα-4-Cl-benzyl)][Nlys][Gly(Nα-4-Cl-benzyl)][Nlys][Gly(Nα-4-Cl-benzyl)]-NH2),2,2,–,2,–,–,1,64,> 512,> 5,2,–
NCCCCNCC(=O)N(CC(=O)N(CCCCN)CC(=O)N(CC(=O)N(CCCCN)CC(=O)N(CC(=O)N(CCCCN)CC(=O)N(CC(=O)N(CCCCN)CC(=O)N(CC(N)=O)Cc1ccc(F)cc1)Cc1ccccc1)Cc1ccc(F)cc1)Cc1ccccc1)Cc1ccc(F)cc1 [Compound 24] (H-[Nlys][N(4-F-Bzl)Gly][Nlys][Nphe][Nlys][N(4-F-Bzl)Gly][Nlys][Nphe][Nlys][N(4-F-Bzl)Gly]-NH2),256,512,–,512,–,–,4,256,512,> 5,8,–
NCCCCNCC(=O)N(CC(=O)N(CCCCN)CC(=O)N(CC(=O)N(CCCCN)CC(=O)N(CC(=O)N(CCCCN)CC(=O)N(CC(=O)N(CCCCN)CC(=O)N(CC(N)=O)Cc1ccc(Cl)cc1)Cc1ccccc1)Cc1ccc(Cl)cc1)Cc1ccccc1)Cc1ccc(Cl)cc1 [Compound 25] (H-[Nlys][Gly(Nα-4-Cl-benzyl)][Nlys][Nphe][Nlys][Gly(Nα-4-Cl-benzyl)][Nlys][Nphe][Nlys][Gly(Nα-4-Cl-benzyl)]-NH2),16,8,–,8,–,–,2,256,512,> 5,1,–
NCCCCNCC(=O)N(CC(=O)N(CCCCN)CC(=O)N(CC(=O)N(CCCCN)CC(=O)N(CC(=O)N(CCCCN)CC(=O)N(CC(=O)N(CCCCN)CC(=O)N(CC(N)=O)Cc1ccc(I)cc1)Cc1ccccc1)Cc1ccc(I)cc1)Cc1ccccc1)Cc1ccc(I)cc1 [Compound 27] (H-[Nlys][NBzl(4-I)Gly][Nlys][Nphe][Nlys][NBzl(4-I)Gly][Nlys][Nphe][Nlys][NBzl(4-I)Gly]-NH2),4,4,–,4,–,–,2,128,> 512,> 5,1,–
NCCCCNCC(=O)N(CC(=O)N(CCCCN)CC(=O)N(CC(=O)N(CCCCN)CC(=O)N(CC(=O)N(CCCCN)CC(=O)N(CC(=O)N(CCCCN)CC(=O)N(CC(=O)N(CCCCN)CC(=O)N(CC(N)=O)Cc1ccc(I)cc1)Cc1ccccc1)Cc1ccc(I)cc1)Cc1ccccc1)Cc1ccc(I)cc1)Cc1ccccc1 [Compound 36] (H-[Nlys][Nphe][Nlys][NBzl(4-I)Gly][Nlys][Nphe][Nlys][NBzl(4-I)Gly][Nlys][Nphe][Nlys][NBzl(4-I)Gly]-NH2),4,8,–,16,–,–,4,256,> 512,–,1,–
